Where two headings read alike, the source gives them in different places.
Assays:
parasites = conditions: vs N-dimethyl substituted homolog; Miskus et al 1968; cited from earlier work
Meloidogyne Incognita = assay: Biological activity on Meloidogyne incognita (nematocide activity, galls on tomato seedlings); assay type: in vivo; conditions: vs control
Experimental: Biological Activity on Meloidogyne Incognita (Nematoda)
A 1:1 mixture of field earth and sand infested by new-born larvae and eggs of the nematode was treated by uniformly mixing with a hydroacetone dispersion (20% by vol. of acetone) at a concentration of 0.1% and of 0.02% of the compounds under test so as to get soil samples containing 100 ppm and 20 ppm, respectively, of active principle. The soil was introduced into plastic pots and after 5 days, 5 tomato seedlings about 15 cm high were transplanted into each of them. Fourteen days after transplantation, the roots of the seedlings extracted from the soil were examined in order to determine the degree of infestation by counting the galls which had formed.
The nematocide activity is expressed in Table 13 as the percentage of infestation reduction with respect to the control (seedlings transplanted into the same soil treated with a dispersion free from active principle).

[1] = Acute toxicity on white rats, administered orally; conditions: rat, in vivo, po
Culex Pipiens [2] = assay: Biological activity on Culex pipiens (mosquito larvae in aqueous dispersion); assay type: in vivo
Source text: Biological Activity on Culex Pipiens (Diptera)
Mosquito larvae of the third and fourth ages were introduced into glass pots containing an aqueous dispersion of the compounds shown at 2 ppm and 0.2 ppm.
(§1) To show the variation in activity from one compound to another, depending on the species used, the activities of compounds according to this invention were investigated at different concentrations, expressed as percent of active principle, on various infesting species. The mortality percentage was computed in the same way as in the preceding examples.

[3] = system: Leptinotarsa Decimlineata; assay: Biological activity on Leptinotarsa decemlineata larvae, sprayed potato seedlings; assay type: in vivo; conditions: read-out: Percent of Mortality
Musca Domestica = assay: Biological activity on Musca domestica, topical application to adults; assay type: in vivo; conditions: read-out: Percent of Mortality
Experimental: Biological Activity on Musca Domestica (Diptera)
Four day old adults were treated by topical application through a microsyringe with 1 mm^3 of an acetonic solution of the compounds shown in such concentrations that they received doses of 5γ/insect; 2γ/insect; 0.5γ/insect of active principle. The mortality percentage 24 hours after the treatment is reported in Table 8 (mortality of insects treated with 1 mm^3 of acetone = 0).

Tetranychus Urticae = assay: Biological activity on Tetranychus urticae eggs, bean leaf discs; assay type: in vivo
Source text: Biological Activity on Tetranychus Urticae (Acari)
Small discs of bean leaves were infested with acarus eggs and successively treated by spraying with an aqueous dispersion of a compound of this invention and Aminocarb as a comparison, at concentrations of 0.1 and 0.01%. The mortality percentage of the control, untreated discs, was zero.
as §1

[4] = system: Leptinotarsa Decimlineata; assay: Biological activity on Leptinotarsa decemlineata larvae, sprayed potato seedlings; assay type: in vivo
Source text: Biological Activity on Leptinotarsa Decimlineata Coleoptera
Potato seedlings cultivated in pots were infested with 4-day old larvae and sprayed with an aqueous dispersion of the compounds according to this invention and Aminocarb as a comparison at doses of […]; respectively. The mortality percentage of the control, untreated seedlings, was zero.
as §1

Macrosiphum Euphorbiae = assay: Biological activity on Macrosiphum euphorbiae (aphides), potato seedlings sprayed with aqueous dispersion; assay type: in vivo
Experimental: Biological Activity on Macrosiphum Euphorbiae (Aphides)
Potato seedlings, cultivated in pots, were infested with adult aphide females and, after a few hours, were sprayed with an aqueous dispersion of the compounds listed in Table 6. The mortality percentage was determined 24 hours after the treatment (on control non-treated seedlings, the mortality percentage was 0).
as §1

Pieris Brassicae = assay: Biological activity on Pieris brassicae larvae, sprayed cut cauliflower leaves; assay type: in vivo
Source text: Biological Activity on Pieris Brassicae (Lepidoptera)
Cut leaves of cauliflower were sprayed with an aqueous dispersion of compound according to this invention at a 0.1% concentration. After drying, they were infested with 5-day old larvae. The mortality percentage of the control, untreated leaves, was zero.
as §1

Tetran Urt. adults = assay: Activity on Tetranychus urticae adults (Table 14); assay type: in vivo; conditions: 1% a.p., read-out: % mort. Tetran. Urt. adults
Source text: as §1

Culex Pipiens [5] = assay: Biological activity on Culex pipiens (mosquito larvae in aqueous dispersion); assay type: in vivo; conditions: read-out: % mort. Culex Pipiens
[6] = 24 h, read-out: Percent of Mortality
[7] = read-out: % mort. Culex Pipiens
[8] = read-out: % mort. Leptinot. Decemlin.
[9] = read-out: % mort. Macrosiphum Euphorbiae

For `CNC(=O)Oc1cc(C)c(NC)c(C)c1`, the relative insecticidal activity (parasites) is listed as “only a bit less active than the N-dimethyl substituted homolog”.

For `CNC(=O)Oc1ccc(N(C)C)c(C)c1` [Aminocarb, reference compound], the “Reduction of Infestation” value (Meloidogyne Incognita; 20 ppm in soil) was 0%, the “Reduction of Infestation” value (Meloidogyne Incognita; 100 ppm in soil) was 95% and the LD50 [1] was 30 mg/kg. The mortality at 0.2 ppm (Culex Pipiens [2]; 0.2 ppm, 24 hours, read-out: Percent of Mortality) was 0%, the mortality at 2 ppm (Culex Pipiens [2]; 2 ppm, 24 hours, read-out: Percent of Mortality) was 25% and the mortality at 0.01 % ([3]; 0.01% concentr., larvae) was 45%. For the same compound, the mortality at 0.5 µg/insect (Musca Domestica; 0.5 γ per insect, 24 hours) was 0%, the mortality at 2 µg/insect (Musca Domestica; 2 γ per insect, 24 hours) was 50% and the mortality at 5 µg/insect (Musca Domestica; 5 γ per insect, 24 hours) was 85%. For the same compound, the mortality at 0.01 % (Tetranychus Urticae; foliar, 0.01%, eggs, read-out: Percent of Mortality) was 0%, the mortality at 0.1 % (Tetranychus Urticae; foliar, 0.1%, eggs, read-out: Percent of Mortality) was 40% and the mortality at 0.1 % ([4]; 0.1% concentr., larvae, read-out: Percent of Mortality) was 100%. For the same compound, the mortality at 0.01 % (Macrosiphum Euphorbiae; 0.01 percent dispersion, 24 hours, read-out: Mortality Percent) was 46%.

For `CNC(=O)Oc1ccc(C)c(NCC=C(Cl)Cl)c1` [M 6430, N-methylcarbamate of 4-methyl-3-(3,3-dichloroallylamino)-phenol], the “Reduction of Infestation” value (Meloidogyne Incognita; 20 ppm in soil) was 88%, the “Reduction of Infestation” value (Meloidogyne Incognita; 100 ppm in soil) was 100% and the LD50 [1] was 100 mg/kg. The mortality at 0.2 ppm (Culex Pipiens [2]; [6]) was 80%, the mortality at 2 ppm (Culex Pipiens [2]; [6]) was 100% and the mortality at 0.01 % [3] was 100%. The mortality at 0.5 µg/insect (Musca Domestica; 24 h) was 100%, the mortality at 2 µg/insect (Musca Domestica; 24 h) was 100% and the mortality at 5 µg/insect (Musca Domestica; 24 h) was 100%. It also gave a mortality at 0.1 % ([4]; read-out: Percent of Mortality) of 100%, a mortality at 0.1 % (Pieris Brassicae; 0.1 percent, larvae, read-out: Percent of Mortality) of 100% and a mortality at 0.01 % (Macrosiphum Euphorbiae; 24 h, read-out: Mortality Percent) of 84%.

With `CNC(=O)Oc1cccc(NCC=C(Cl)Cl)c1` [M 7360] the mortality at 1 % (Tetran Urt. adults) was 23%, the mortality at 0.2 ppm (Culex Pipiens [2]; [7]) was 37% and the mortality at 2 ppm (Culex Pipiens [2]; [7]) was 100%. The mortality at 0.02 ppm (Culex Pipiens [5]) was 0%, the mortality at 1 % (Tetranychus Urticae; topical, read-out: % mort. Tetran. Urt. eggs) was 6% and the mortality at 0.01 % [4, 8] was 0%. It also gave a mortality at 0.1 % [4, 8] of 100%, a mortality at 1 % [4, 8] of 100% and a mortality at 1 % (Pieris Brassicae; Table 14, 1% a.p., read-out: % mort. Pieris Brassicae) of 45%. For the same compound, the mortality at 0.01 % (Macrosiphum Euphorbiae; [9]) was 42%, the mortality at 0.1 % (Macrosiphum Euphorbiae; [9]) was 95% and the mortality at 1 % (Macrosiphum Euphorbiae; [9]) was 100%.

Reference: patent publication US4109011A, “Insecticide carbamates of N-(polychloroallyl)-amino-phenols” (priority 1975, dated 1978)
